{"source": "paper PMC9416253", "about": "“Automated Radiosynthesis, Preliminary In Vitro/In Vivo Characterization of OncoFAP-Based Radiopharmaceuticals for Cancer Imaging and Therapy” (Pharmaceuticals, 2022)", "key": {"FAP": {"target": "FAP", "set-up": "method as in PMID 33850024", "conditions": "read-out: dissociation constant; cited from earlier work"}, "hCAIX": {"target": "hCAIX (Homo sapiens, UniProt Q16790)", "test": "Co-elution experiment with hCAIX (non-target protein) on PD-10 columns", "type": "binding", "conditions": "PD-10 column", "experimental": "NODAGA-OncoFAP labeling with 177Lu and characterization\nFigure S1. (A) Radiolabeling reaction scheme of OncoFAP-NODAGA with 177Lu in acetate buffer (pH=4) at 95°C for 15 min. (B) Coelution experiment of [177Lu]Lu-NODAGA-OncoFAP-with hFAP and hCAIX on PD-10 size exclusion chromatography columns. (C) Radio-HPLC analysis performed after labeling reaction.\nNODAGA-OncoFAP can be efficiently labeled with 177Lu by heating at 95°C in acetate buffer (pH=4) for 15 min. [Figure S1A] […]\nbeen observed. [Figure S1C] […]"}, "recombinant hFAP": {"target": "T1, recombinant hFAP (Homo sapiens, UniProt Q12884)", "T1 sequence (Q12884 1-760)": "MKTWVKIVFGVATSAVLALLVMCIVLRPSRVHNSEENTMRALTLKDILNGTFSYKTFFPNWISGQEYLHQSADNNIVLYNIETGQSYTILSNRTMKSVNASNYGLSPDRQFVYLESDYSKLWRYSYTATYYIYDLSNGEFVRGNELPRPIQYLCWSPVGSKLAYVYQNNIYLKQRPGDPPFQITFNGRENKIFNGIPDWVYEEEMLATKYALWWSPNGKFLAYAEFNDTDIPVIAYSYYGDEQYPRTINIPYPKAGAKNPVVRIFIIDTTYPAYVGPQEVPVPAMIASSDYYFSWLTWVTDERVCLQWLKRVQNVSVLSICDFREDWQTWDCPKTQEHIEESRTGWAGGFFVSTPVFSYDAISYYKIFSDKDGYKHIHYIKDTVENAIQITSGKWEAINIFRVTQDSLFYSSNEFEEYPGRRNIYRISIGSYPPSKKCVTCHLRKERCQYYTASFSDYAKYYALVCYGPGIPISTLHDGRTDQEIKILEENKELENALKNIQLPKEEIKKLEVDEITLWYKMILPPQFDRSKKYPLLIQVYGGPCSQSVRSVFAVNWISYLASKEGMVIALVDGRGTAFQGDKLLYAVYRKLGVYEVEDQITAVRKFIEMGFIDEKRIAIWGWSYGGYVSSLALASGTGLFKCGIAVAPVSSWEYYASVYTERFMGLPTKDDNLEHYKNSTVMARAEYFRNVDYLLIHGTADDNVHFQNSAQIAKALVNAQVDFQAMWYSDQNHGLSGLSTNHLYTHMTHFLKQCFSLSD", "test": "Co-elution experiment with recombinant hFAP on PD-10 size exclusion columns", "type": "binding", "conditions": "500 kBq radioligand, hFAP 2 μM 100 μL, PD-10 column", "experimental": "To assess the binding properties of radiolabeled OncoFAP-derivatives preparations to hFAP, [^68Ga]/[^18F]AlF/[^177Lu]-OncoFAP derivatives (500 kBq) were incubated with hFAP (2 μM, 100 μL) and then loaded on PD-10 columns, pre-equilibrated with running buffer (50 mM Tris, 100 mM NaCl, and 1 mM ethylenediaminetetraacetic acid [EDTA], pH = 7.4) and eluted with running buffer. Fractions of the flow through (500 μL) were collected, and the radioactivity intensity was measured immediately on a gamma counter (λ = 511 KeV for gallium-68 and fluorine-18 and λ = 208 KeV for lutetium-177)."}, "[1]": {"test": "Lipophilicity by shake-flask method (n-octanol/saline or PBS)", "type": "physicochemical", "conditions": "room temperature; for LogD7.4: n-octanol/PBS; for LogP: n-octanol/saline solution", "experimental": "Lipophilicity was determined by partitioning between n-octanol and saline solution (LogP) or PBS (LogD7.4) at room temperature using the conventional shake-flask method. An aliquot of the formulated solution containing ~500 kBq of radiopharmaceuticals was added to a tube containing 6 mL of n-octanol/saline solution or n-octanol/PBS (1:1 v/v, LogP or LogD7.4, respectively). The tubes were shaken for 20 min, followed by centrifugation (5000× g for 5 min) and separation of the phases. Aliquots of 1 mL of the organic and the aqueous phases were taken, and the activity was measured using an automated gamma counter. The LogP or LogD7.4 were calculated as the decadic logarithm of [activity (cpm/mL) in n-octanol]/[(activity (cpm/mL) in saline solution or PBS]."}, "SK-RC-52.hFAP cells": {"tested_on": "SK-RC-52.hFAP cells", "test": "Cell binding assay on FAP-positive SK-RC-52.hFAP cells", "type": "cell-based", "conditions": "0.1 MBq, 37 °C, 1.5 × 10^5 cells each tube", "experimental": "Cell binding assays were performed in triplicate on SK-RC-52.hFAP and SK-R-RC-52.wt cells (density of 1.5 × 10^5 cells each tube), growth in RPMI-1640 medium (Gibco) containing 10% Fetal Bovine Serum (Gibco) and 1% Antibiotic-Antimycotic (Gibco) at 37 °C in 5% carbon dioxide (CO2). After adding [^68Ga]Ga-DOTAGA-OncoFAP, [^177Lu]Lu-DOTAGA-OncoFAP or [^18F]AlF-NOTA-OncoFAP (10 µL, 0.1 MBq) to the culture medium, the cells were incubated at 37 °C for 10, 30, 60 min for ^68Ga-derivatives and 10, 30, 60, 120, 240 min for ^18F-derivatives or 10, 30, 60, 120, 240, 360 min and 24 and 48 h for the ^177Lu-derivative. As a control, nonspecific binding determination was carried out by incubating with the OncoFAP derivatives complex with the non-radioactive isotopes reference standard (100 µM) with the same cell lines for 5 min before incubation with the radiolabeled compounds. After incubation, the cell pellets were washed twice with 1 mL of cold PBS (pH 7.4), centrifuged (400× g, 5 min) and the pellet measured by an automatic gamma counter (WIZARD2, PerkinElmer, Waltham, MA, USA)."}, "HT-1080.hFAP tumors": {"tested_on": "HT-1080.hFAP tumors", "test": "In vivo biodistribution in mice bearing subcutaneous HT-1080.hFAP tumors", "experimental": "Tumor cells were grown to 80% confluence in Dulbecco’s Modified Eagle Medium (DMEM) supplemented with 10% Fetal Bovine Serum (Thermofisher, Waltham, MA, USA) and 1% antibiotic-antimycotic (Gibco) and detached with Trypsin-EDTA 0.05%. HT-1080.hFAP, cells (FAP positive cells) were resuspended in Hanks’ Balanced Salt Solution medium. Aliquots of 5 × 10^6 cells (100 μL of suspension) were injected subcutaneously in the right flanks of female athymic Balb/c AnNRj-Foxn1 mice (6 to 8 weeks of age, Janvier-labs, Le Genest-Saint-Isle, France). Female athymic Balb/c AnNRj-Foxn1 mice (6 to 8 weeks of age) were implanted in the right flank with HT-1080.hFAP tumors as described above. Tumors were allowed to grow to an average volume of 250 mm^3. Mice were randomized (n = 5 per group) and injected intravenously with radiolabeled preparations of [^18F]AlF-NOTA-OncoFAP (10 nmol/mice; 77 kBq; RCP:89%). Mice were euthanized 1 h after the injection by CO2 asphyxiation. Organs were extracted, weighted, and radioactivity was measured with a Packard Cobra Gamma Counter. Values are expressed as percent ID/g ± SD."}, "[2]": {"tested_on": "FAP-expressing tumor models", "set-up": "method as in PMID 34957527", "conditions": "cited from earlier work"}, "FAP-positive tumor": {"tested_on": "FAP-positive tumor", "set-up": "method as in PMID 35589404", "conditions": "cited from earlier work"}, "[3]": {"test": "In vitro stability in saline solution (bulk solution), HPLC/iTLC", "type": "physicochemical", "experimental": "The in vitro stability of the radiopharmaceuticals preparations in saline solution was evaluated on the bulk solution i.e., with the highest radioactive concentration. In addition, the in vitro stability of radiopharmaceutical preparations was tested by incubating 10 MBq of each radiolabeled compounds in 1 mL of human plasma at 37 °C. Small aliquots of bulk solution were analyzed by HPLC and iTLC and 10 µL of plasma solution were analyzed by iTLC at 30, 60, 90, 120, 150 and 180 min for [^68Ga]Ga-DOTAGA/NODAGA-OncoFAP derivatives, 50, 100, 150 and 200-min for [^18F]AlF-NOTA/NODAGA-OncoFAP or 1, 3, 6, 12, 24, and 2, 3, 4, 7 and 9 days for [^177Lu]Lu-DOTAGA-OncoFAP, as show in Figure 3."}, "[4]": {"conditions": "1-h time point, 500 nmol/kg i.v."}}, "note": "Read-outs that look alike come from different tables or passages of the source."}
{"smiles": "N#C[C@@H]1CC(F)(F)CN1C(=O)CNC(=O)c1ccnc2c(NC(=O)CCC(=O)O)cccc12", "note": "[OncoFAP]", "values": [{"measurement": "Kd", "setting": "FAP", "result": 680, "unit": "pM"}]}
{"smiles": "N#C[C@@H]1CC(F)(F)CN1C(=O)CNC(=O)c1ccnc2c(NC(=O)CCC(=O)NCCNC(=O)CCC(C(=O)[O-])N3CCN(CC(=O)[O-])CCN(CC(=O)[O-])CC3)cccc12.[177Lu+3]", "note": "(stereo partly shown) [[177Lu]Lu-NODAGA-OncoFAP]", "values": [{"measurement": "interaction with hCAIX (co-elution)", "setting": "hCAIX", "result": "no significant interaction"}, {"measurement": "complex formation with recombinant hFAP (co-elution)", "setting": "recombinant hFAP", "result": "strong affinity"}]}
{"smiles": "N#C[C@@H]1CC(F)(F)CN1C(=O)CNC(=O)c1ccnc2c(NC(=O)CCC(=O)NCCNC(=O)CCC(C(=O)O)N3CCN(CC(=O)[O-])CCN(CC(=O)[O-])CC3)cccc12.[18F][Al+2]", "note": "(stereo partly shown) [[^18F]AlF-NODAGA-OncoFAP]", "values": [{"measurement": "LogD7.4", "setting": "[1]", "result": "-2.88±0.16"}, {"measurement": "LogP", "setting": "[1]", "result": "-3.02± 015"}]}
{"smiles": "N#C[C@@H]1CC(F)(F)CN1C(=O)CNC(=O)c1ccnc2c(NC(=O)CCC(=O)N3CCN(C(=O)CN4CCN(CC(=O)[O-])CCN(CC(=O)[O-])CC4)CC3)cccc12.[18F][Al+2]", "note": "[[^18F]AlF-NOTA-OncoFAP]", "values": [{"measurement": "absolute binding value", "setting": "SK-RC-52.hFAP cells", "result": 0.25, "unit": "%"}, {"measurement": "LogD7.4", "setting": "[1]", "result": "-2.01± 0.25"}, {"measurement": "LogP", "setting": "[1]", "result": "-2.15± 0.18"}, {"measurement": "tumor-to-blood ratio", "setting": "HT-1080.hFAP tumors; [4]", "result": 6.5}, {"measurement": "tumor-to-kidney ratio", "setting": "HT-1080.hFAP tumors; [4]", "result": 4.3}, {"measurement": "tumor accumulation", "setting": "HT-1080.hFAP tumors; 1 h post intravenous injection, 500 nmol/kg, HT-1080.hFAP", "result": 6.6, "unit": "% ID/g"}]}
{"smiles": "N#C[C@@H]1CC(F)(F)CN1C(=O)CNC(=O)c1ccnc2c(NC(=O)CCC(=O)NCCNC(=O)CCC(C(=O)O)N3CCN(CC(=O)[O-])CCN(CC(=O)[O-])CCN(CC(=O)[O-])CC3)cccc12.[68Ga+3]", "note": "(stereo partly shown) [[^68Ga]Ga-DOTAGA-OncoFAP]", "values": [{"measurement": "tumor-to-blood ratio", "setting": "[2]; at 1 h p.i.", "result": "8.6 ± 5.1"}, {"measurement": "tumor-to-blood ratio", "setting": "[2]; at 3 h p.i.", "result": "38.1 ± 33.1"}, {"measurement": "LogD7.4", "setting": "[1]", "result": "-2.39 ± 0.12"}, {"measurement": "LogP", "setting": "[1]", "result": "-2.57± 0.15"}, {"measurement": "complex formation with recombinant hFAP (co-elution)", "setting": "recombinant hFAP", "result": "forms a stable complex"}]}
{"smiles": "N#C[C@@H]1CC(F)(F)CN1C(=O)CNC(=O)c1ccnc2c(NC(=O)CCC(=O)NCCNC(=O)CCC(C(=O)[O-])N3CCN(CC(=O)[O-])CCN(CC(=O)[O-])CC3)cccc12.[68Ga+3]", "note": "(stereo partly shown) [[^68Ga]Ga-NODAGA-OncoFAP]", "values": [{"measurement": "LogD7.4", "setting": "[1]", "result": "-2.48± 0.09"}, {"measurement": "LogP", "setting": "[1]", "result": "-2.68± 0.14"}]}
{"smiles": "N#C[C@@H]1CC(F)(F)CN1C(=O)CNC(=O)c1ccnc2c(NC(=O)CCC(=O)N3CCN(C(=O)CN4CCN(CC(=O)[O-])CCN(CC(=O)[O-])CC4)CC3)cccc12.[68Ga+3]", "note": "[[^68Ga]Ga-NOTA-OncoFAP]", "values": [{"measurement": "LogD7.4", "setting": "[1]", "result": "-2.19± 0.11"}, {"measurement": "LogP", "setting": "[1]", "result": "-2.38± 0.11"}]}
{"smiles": "N#C[C@@H]1CC(F)(F)CN1C(=O)CNC(=O)c1ccnc2c(NC(=O)CCC(=O)NCCNC(=O)CCC(C(=O)O)N3CCN(CC(=O)[O-])CCN(CC(=O)[O-])CCN(CC(=O)[O-])CC3)cccc12.[177Lu+3]", "note": "(stereo partly shown) [[^177Lu]Lu-DOTAGA-OncoFAP]", "values": [{"measurement": "uptake in the FAP-positive tumor", "setting": "FAP-positive tumor; 10 min after injection", "result": "32 % injected dose [ID]/g"}, {"measurement": "tumor uptake", "setting": "FAP-positive tumor; at 24 h p.i.", "result": "~ 4 % ID/g"}, {"measurement": "sustained uptake in the lesions", "setting": "FAP-positive tumor; over the first 6 h time window", "result": "higher than 20 % ID/g"}, {"measurement": "radiolysis", "setting": "[3]; every 24 h, without gentisic acid", "result": "about 10%"}, {"measurement": "stability at high radioactive concentrations", "setting": "[3]; in words, without stabilizer", "result": "intrinsic instability"}, {"measurement": "radiolysis", "setting": "[3]; within 8 days, with addition of 20 mg of gentisic acid as radical scavenger", "result": "about 2%"}, {"measurement": "LogD7.4", "setting": "[1]", "result": "-1.85± 0.05"}, {"measurement": "LogP", "setting": "[1]", "result": "-2.01± 0.08"}]}
